Data published in patent US12612386B2, “Heteroaryl-triazole compounds as pesticides” (Bayer Aktiengesellschaft, priority 2020, dated 2026).

Tests used:
Format in all cases: in vivo
[1] = system: green peach aphid (Myzus persicae); test: whole plant or invertebrate; conditions: 120 h
Method: Solvent: 100 parts by weight acetone
To produce a suitable preparation of active compound, 1 part by weight of active compound is mixed with the stated amount of solvent, and the concentrate is diluted with water to the desired concentration.
50 μL compound solution is filled in microtiter plates and 150 μL IPL41 insect medium (33%+15% sugar) is added to obtain a total volume of 200 μL per well. Afterwards the plates are sealed with parafilm through which a mixed population of the green peach aphid (Myzus persicae) can suck on the compound preparation.
After 5 days mortality in % is determined. 100% means all aphids have been killed and 0% means none of the aphids have been killed.
Myzus persicae—Oral Test (MYZUPE Oral)

[2] = system: engorged adult female cattle ticks (Rhipicephalus microplus) strain Parkhurst, SP-resistant; test: Rhipicephalus (Boophilus) microplus dip test; conditions: 100 ppm, egg deposition after 7 days
Method: Rhipicephalus (Boophilus) Microplus—Dip Test
Test animal: cattle ticks (Rhipicephalus microplus) strain Parkhurst, SP-resistant
Solvent: dimethyl sulfoxide
To produce a suitable preparation of active compound, 10 mg of active compound are dissolved in 0.5 mL solvent, and the concentrate is diluted with water to the desired concentration.
This compound solution is pipetted into tubes. 8-10 engorged, adult, female cattle ticks (Rhipicephalus microplus) are placed in perforated tubes. These tubes are immersed in the aqueous compound solution until the ticks are completely moistened. After the liquid has drained off, the ticks are transferred to a filter paper in a plastic tray and stored in a climate chamber.
After 7 days egg deposition of fertile eggs is monitored. Eggs where fertility is not visible are stored in a climate chamber till hatching after about 42 days. An efficacy of 100% means all eggs are infertile; 0% means all eggs are fertile.

[3] = system: fall armyworm larvae (Spodoptera frugiperda); test: whole plant or invertebrate; conditions: 168 h
Procedure, shortened: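 Percent kill of Spodoptera frugiperda caterpillars, read 7 days after infestation of dried, spray-treated Zea mays leaf pieces. Spray preparation: compound in acetone plus dimethylformamide, diluted with emulsifier-containing water.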

C[C@H](NC(=O)c1cc(Br)cc(OC(F)(F)F)c1)c1ncnn1-c1cc(C#N)ncn1 [I-1, 3-bromo-N-{(1S)-1-[1-(6-cyanopyrimidin-4-yl)-1H-1,2,4-triazol-5-yl]ethyl}-5-(trifluoromethoxy)benzamide]
100%: mortality at 0.16 ppm ([1]; MYZUPE oral, 0.16 ppm, 5 dat (Table 3), read-out: % Efficacy) | mortality at 4 ppm ([1]; po) | efficacy (infertile eggs) [2] | mortality at 100 g/ha [3] | Emax at 20 g/ha ([3]; SPODFR, 20 g ai/ha, 7 dat (Table 3), read-out: % Efficacy)
